Laboratory results taken from patent publication US11912650B2, “Bakuchiol derivatives, pharmaceutically acceptable salts thereof, and preparation method and use of the same” (priority 2020, dated 2024).
Values after ≈ are worked out from the molar mass of the structure shown. Like-named read-outs stand apart in the source and are kept apart here.

Experiments:
S. aureus ATCC29213 [1] = experiment: Evaluation of development tendency of drug resistance; assay type: cell-based; details: S. aureus ATCC29213, passage at 0.5×MIC
Experimental: Evaluation of development tendency of drug resistance. Initial MIC values of compound 60, norfloxacin and gatifloxacin against S. aureus ATCC29213 were obtained by the above MIC determination method. Bacterial cells in a 96-well plate with a concentration of 0.5×MIC were taken out to prepare a bacterial suspension (about 1×10^6 CFU/mL) for the next MIC value determination. After incubating the sample at 37° C. for 24 hours, the change in the MIC value of each compound was measured. This experiment was carried out consecutively for 15 days.

S. aureus ATCC29213 [2] = experiment: Antibacterial activity assay (broth dilution MIC); assay type: cell-based; details: Staphylococcus aureus, 37° C., 24 h, compounds 38, 44-45, 58-61, 63-64 with 0.05% Tween 80
Experimental: (§1) Antibacterial activity assay. The antibacterial activities of all the compounds were determined according to a broth dilution method specified in Clinical and Laboratory Standards Institute (CLSI) guidelines. Bacterial cells were inoculated on a Mueller-Hinton agar (MHA) plate for overnight culture, and the concentration of the bacterial cells was adjusted to about 1×10^6 colony-forming units (CFU)/mL with phosphate buffered saline (PBS). First, a 1000 μg/mL stock solution (a final concentration of dimethyl sulfoxide (DMSO) was ≤2%) was prepared by dissolving a sample in DMSO/H2O. Then, the stock solution was diluted with Mueller-Hinton Broth (MHB) to an initial concentration of 100 μg/mL, and the sample solution (100 μL) was subjected to two-fold gradient dilution with MHB in a 96-well plate, to obtain 100 μg/mL to 0.78 μg/mL serial dilutions. Then, a bacterial suspension (100 μL) was added to each well of the 96-well plate and mixed with the test sample solution (100 μL). Among them, test systems for compounds 38, 44-45, 58-61 and 63-64 contained 0.05% of Tween 80. Finally, the 96-well plate was incubated at 37° C. for 24 hours. Absorbances at 600 nm at 0 and 24 h were measured. An minimum inhibitory concentration (MIC) value was defined as the lowest concentration where no visible bacterial growth occurred. All experiments were carried out in at least two duplicates, and biological repeatability could be achieved.

E. coli ATCC25922 = experiment: Antibacterial activity assay (broth dilution MIC); assay type: cell-based; details: Escherichia coli, 37° C., 24 h, compounds 38, 44-45, 58-61, 63-64 with 0.05% Tween 80
Experimental: as §1

MRSA N315 = experiment: Antibacterial activity assay (broth dilution MIC); assay type: cell-based, methicillin-resistant Staphylococcus aureus; details: Staphylococcus aureus, 37° C., 24 h, compounds 38, 44-45, 58-61, 63-64 with 0.05% Tween 80
Experimental: as §1

MRSA NCTC10442 = experiment: Antibacterial activity assay (broth dilution MIC); assay type: cell-based, methicillin-resistant Staphylococcus aureus; details: Staphylococcus aureus, 37° C., 24 h, compounds 38, 44-45, 58-61, 63-64 with 0.05% Tween 80
Experimental: as §1

Gram-positive bacteria = experiment: Antibacterial activity against Gram-positive bacteria (MIC summary); assay type: cell-based; details: 24 h, read-out: minimum inhibitory concentration (MIC) against Gram-positive bacteria
Experimental: as §1

Gram-negative bacteria = experiment: Antibacterial activity against Gram-negative bacteria (MIC summary); assay type: cell-based; details: 24 h; summary of tables 1 and 2
Experimental: as §1

Row | Compound | change in MIC value after 15 days of continuous passage (S. aureus ATCC29213 [1]) | MIC (S. aureus ATCC29213 [2]) | MIC (E. coli ATCC25922) | MIC (MRSA N315) | MIC (MRSA NCTC10442) | MIC (Gram-positive bacteria) | MIC (Gram-positive bacteria; summary of tables 1 and 2) | MIC (Gram-negative bacteria)
1 | CCn1cc(C(=O)O)c(=O)c2cc(F)c(N3CCNCC3)cc21 [norfloxacin, reference compound] | 16 fold | – | – | – | – | – | – | –
2 | C=C[C@@](C)(/C=C/c1ccc(OCCCCN(CC)CC)cc1)CCC=C(C)C [Compound 6] | – | 3.12 µg/mL (≈ 8.15 µM) | > 100 µg/mL | 3.12 µg/mL (≈ 8.15 µM) | 3.12 µg/mL (≈ 8.15 µM) | 0.39 to 3.12 µg/mL (≈ 1.02 to 8.15 µM) | – | –
3 | C=C[C@@](C)(/C=C/c1ccc(OCCCCCCCCN(CC)CC)cc1)CCC=C(C)C [Compound 11] | – | 3.12 µg/mL (≈ 7.11 µM) | > 100 µg/mL | 1.56 µg/mL (≈ 3.55 µM) | 1.56 µg/mL (≈ 3.55 µM) | – | 0.39 to 3.12 µg/mL (≈ 0.887 to 7.11 µM) | –
4 | C=C[C@@](C)(/C=C/c1ccc(OCCCCN)cc1)CCC=C(C)C [Compound 13] | – | 1.56 µg/mL (≈ 4.76 µM) | 12.5 µg/mL (≈ 38.2 µM) | 0.78 µg/mL (≈ 2.38 µM) | 1.56 µg/mL (≈ 4.76 µM) | – | 0.39 to 3.12 µg/mL (≈ 1.19 to 9.54 µM) | –
5 | C=C[C@@](C)(/C=C/c1ccc(OCCCCN(C)C)cc1)CCC=C(C)C [Compound 5] | – | 1.56 µg/mL (≈ 4.39 µM) | > 50 µg/mL | 1.56 µg/mL (≈ 4.39 µM) | 3.12 µg/mL (≈ 8.79 µM) | 0.39 to 3.12 µg/mL (≈ 1.1 to 8.79 µM) | – | –
6 | C=C[C@@](C)(/C=C/c1ccc(OCCCCN2CCNCCNCCNCCNCC2)cc1)CCC=C(C)C [Compound 31] | – | 1.56 µg/mL (≈ 2.97 µM) | 6.25 µg/mL (≈ 11.9 µM) | 0.78 µg/mL (≈ 1.48 µM) | 1.56 µg/mL (≈ 2.97 µM) | – | 0.39 to 3.12 µg/mL (≈ 0.742 to 5.94 µM) | –
7 | C=C[C@@](C)(/C=C/c1ccc(OCCCCCCCCCCN(CC)CC)cc1)CCC=C(C)C [Compound 12] | – | 12.5 µg/mL (≈ 26.7 µM) | > 100 µg/mL | 3.12 µg/mL (≈ 6.68 µM) | 3.12 µg/mL (≈ 6.68 µM) | – | 0.39 to 3.12 µg/mL (≈ 0.834 to 6.68 µM) | –
8 | C=C[C@@](C)(/C=C/c1ccc(OCCCCNC(=N)N)cc1)CCC=C(C)C [Compound 35] | – | 3.12 µg/mL (≈ 8.46 µM) | 25 µg/mL (≈ 67.6 µM) | 1.56 µg/mL (≈ 4.22 µM) | 3.12 µg/mL (≈ 8.46 µM) | – | 0.39 to 3.12 µg/mL (≈ 1.06 to 8.46 µM) | –
9 | C=C[C@](C)(/C=C/c1ccc(OCC(=O)N[C@@H](CCCNC(=N)N)C(=O)N[C@@H](CCCNC(=N)N)C(=O)N2CCN(c3ccc(N4C[C@H](CNC(C)=O)OC4=O)cc3F)CC2)cc1)CCC=C(C)C [Compound 59] | – | 0.78 µg/mL (≈ 0.825 µM) | 1.56 µg/mL (≈ 1.65 µM) | 0.78 µg/mL (≈ 0.825 µM) | 0.78 µg/mL (≈ 0.825 µM) | – | 0.39 to 3.12 µg/mL (≈ 0.413 to 3.31 µM) | 1.56 to 3.12 µg/mL (≈ 1.65 to 3.31 µM)
10 | C=C[C@](C)(/C=C/c1ccc(OCC(=O)N[C@@H](CCCNC(=N)N)C(=O)N[C@@H](CCCNC(=N)N)C(=O)N[C@@H](CCCNC(=N)N)C(=O)N2CCN(c3ccc(N4C[C@H](CNC(C)=O)OC4=O)cc3F)CC2)cc1)CCC=C(C)C [Compound 63] | – | 0.78 µg/mL (≈ 0.708 µM) | 3.12 µg/mL (≈ 2.84 µM) | 0.78 µg/mL (≈ 0.708 µM) | 0.78 µg/mL (≈ 0.708 µM) | – | 0.39 to 3.12 µg/mL (≈ 0.354 to 2.84 µM) | 1.56 to 3.12 µg/mL (≈ 1.42 to 2.84 µM)
11 | C=C[C@@](C)(/C=C/c1ccc(OCCCCN2CCCNCCNCCCNCC2)cc1)CCC=C(C)C [Compound 30] | – | 0.78 µg/mL (≈ 1.53 µM) | 3.12 µg/mL (≈ 6.12 µM) | 0.78 µg/mL (≈ 1.53 µM) | 0.78 µg/mL (≈ 1.53 µM) | – | 0.39 to 3.12 µg/mL (≈ 0.763 to 6.12 µM) | 1.56 to 3.12 µg/mL (≈ 3.05 to 6.12 µM)
12 | C=C[C@@](C)(/C=C/c1ccc(OCCCCN(C)CCCN(C)C)cc1)CCC=C(C)C [Compound 26] | – | 1.56 µg/mL (≈ 3.66 µM) | 3.12 µg/mL (≈ 7.32 µM) | 1.56 µg/mL (≈ 3.66 µM) | 3.12 µg/mL (≈ 7.32 µM) | – | 0.39 to 3.12 µg/mL (≈ 0.914 to 7.32 µM) | 1.56 to 3.12 µg/mL (≈ 3.66 to 7.32 µM)
